Reference: ChEMBL document CHEMBL5236570, “Substitution of a triazole for the central olefin in biologically active stilbenes” (2022)

How the values were obtained:
[1] = test system: SF-295; assay: Growth inhibition of human SF-295 cells; type: functional
[2] = test system: Panel NCI-60 (60 carcinoma cell lines); assay: Growth inhibition of human Panel NCI-60 cells; type: functional

In the case of `COc1cc(-n2cc(-c3cc(O)c(C/C=C(\C)CCC=C(C)C)c(O)c3)nn2)cc2c1O[C@]1(C)CC[C@@H](O)C(C)(C)[C@H]1C2`, the GI50 [1] is reported as 35 nM and the GI50 [2] is reported as 710 nM.

`COc1cc(CCc2cc(O)c(C/C=C(\C)CC/C=C(\C)CO)c(O)c2)cc2c1O[C@]1(C)CC[C@@H](O)C(C)(C)[C@H]1C2` showed a GI50 [1] of 2500 nM and a GI50 [2] of 4900 nM.

For `COc1cc(/C=C/c2cc(O)c(C/C=C(\C)CCC=C(C)C)c(O)c2)cc2c1O[C@]1(C)CC[C@@H](O)C(C)(C)[C@H]1C2` [3-DEOXYSCHWEINFURTHIN B], the GI50 [1] was 62 nM and the GI50 [2] was 620 nM.

`CC(C)=CCC/C(C)=C/Cc1c(O)cc(/C=C/c2cc(O)c3c(c2)C[C@@H]2C(C)(C)[C@H](O)[C@H](O)C[C@@]2(C)O3)cc1O` [SCHWEINFURTHIN A] gave a GI50 [1] of 11 nM and a GI50 [2] of 360 nM.
